Data as given in patent publication US7531565B2, “Imidazolidin-2-one derivatives as selective androgen receptor modulators (SARMS)” (Janssen Pharmaceutica, N.V., priority 2004, dated 2009).

Assays:
[1] = test system: castrated male Sprague Dawley rats; assay: Ventral prostate and seminal vesicle weight in vivo assay; design: species or system rat; key: A test compound was said to be “active” if the non weight adjusted prostate weight was ≦60 mg or ≧84 mg; they are listed herein as “inactive” as they did not meet the specified criteria defined above; conditions: immature castrated rats, once daily for five days, usually orally 40 mg/kg, with testosterone propionate 2 mg/kg s.c.
Description: Immature (approximately 50 g) castrated male Sprague Dawley rats (Charles River) were treated once daily for five days with test compound (usually given orally at 40 mg/kg in a volume of 0.3 mL, in 30% cyclodextrin or 0.5% methylcellulose vehicle) and with testosterone propionate (given subcutaneously by injection at the nape of the neck at 2 mg/kg, in a volume of 0.1 mL in sesame oil). On the sixth day, the rats were euthanized by asphyxiation in carbon dioxide. Ventral prosatates and seminal vesicles were removed and their wet weights determined. Test compound activity was determined as the percent inhibition of testosterone-enhanced tissue weights, with a vehicle-treated control group set to zero percent and a testosterone alone-treated control group set to 100%.
A test compound was said to be “active” if the non weight adjusted prostate weight was ≦60 mg or ≧84 mg.

[2] = biological target: T1, androgen receptor (Rattus norvegicus, UniProt P15207); assay: L929 androgen receptor functional assay, adenovirus transduction; assay type: cell-based; design: expressed in transfected cells; conditions: 3 μM, L929 cells; for % Activition @ 3 μM: agonist testing (no R1881), luciferase
T1 sequence (P15207 1-902): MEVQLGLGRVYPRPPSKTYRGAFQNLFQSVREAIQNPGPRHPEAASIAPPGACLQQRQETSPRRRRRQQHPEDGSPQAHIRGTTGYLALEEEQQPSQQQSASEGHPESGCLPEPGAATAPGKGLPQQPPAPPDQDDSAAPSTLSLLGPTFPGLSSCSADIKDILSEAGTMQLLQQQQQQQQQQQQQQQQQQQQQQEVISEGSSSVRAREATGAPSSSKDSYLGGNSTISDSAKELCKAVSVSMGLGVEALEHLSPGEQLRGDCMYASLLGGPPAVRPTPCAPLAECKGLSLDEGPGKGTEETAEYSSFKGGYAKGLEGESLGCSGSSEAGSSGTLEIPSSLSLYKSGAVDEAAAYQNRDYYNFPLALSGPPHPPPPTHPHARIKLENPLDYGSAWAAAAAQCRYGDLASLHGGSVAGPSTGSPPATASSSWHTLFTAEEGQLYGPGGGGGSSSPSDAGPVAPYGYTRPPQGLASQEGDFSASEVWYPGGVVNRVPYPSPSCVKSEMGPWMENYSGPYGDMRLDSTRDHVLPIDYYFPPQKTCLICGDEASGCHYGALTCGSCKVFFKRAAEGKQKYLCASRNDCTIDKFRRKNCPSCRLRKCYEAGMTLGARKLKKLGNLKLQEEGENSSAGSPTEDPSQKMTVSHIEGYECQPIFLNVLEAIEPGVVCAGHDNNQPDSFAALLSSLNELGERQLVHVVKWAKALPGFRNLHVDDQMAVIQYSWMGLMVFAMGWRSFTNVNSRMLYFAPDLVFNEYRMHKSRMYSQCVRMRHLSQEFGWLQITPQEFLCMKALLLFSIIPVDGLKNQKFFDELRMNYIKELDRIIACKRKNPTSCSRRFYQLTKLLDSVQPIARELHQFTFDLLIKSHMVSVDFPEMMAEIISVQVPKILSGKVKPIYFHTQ
Description: L929 cells were plated in 96-well plates at 20,000 cells per well, in DMEM/F12 (GIBCO) containing 10% (v/v) charcoal-treated fetal bovine serum (Hyclone) and lacking phenol red. The plates were then incubated overnight at 37° C. in 5% (v/v) humidified CO2.
Test compound dilutions were prepared in 100% (v/v) DMSO, if necessary. Each dilution was made to 1250× the final desired assay concentration. First, 2 mL of DMEM/F12 lacking phenol red was pipetted into the wells of a 2-mL 96-well assay block. Next, 4 μL of the 1250× test compound dilutions were pipetted into each well of the assay block. The mixtures within the well were then carefully mixed by pipette.
In a 15 mL or 50 mL sterile centrifuge tube, a 2.5 nM (2.5×) dilution of R1881 (methyl-trienolone) in DMEM/F12 lacking phenol red was prepared. In a second 15 mL or 50 mL centrifuge tube a solution containing an equal volume of DMEM to the first and an equal volume of 100% (v/v) DMSO to the volume of R1881 used in the first tube was prepared.
In a 15 mL or 50 mL sterile centrifuge tube, a dilution in DMEM/F12 of the adenovirus AdEasy+rAR at an moi of 1:500 per well was prepared. The medium was removed from the 96-well plates by inversion and dried, inverted, very briefly. As soon as possible after medium removal, 40 μL of the diluted unlabeled test compound was added to each well, in duplicate. To each well designated for antagonist testing was added 40 μL of the 2.5 nM R1881 dilution to the wells for antagonist testing. To each well designated for agonist testing was added 40 μL of the DMSO dilution. Then 20 μL of the diluted adenovirus were added to all wells. The plates were incubated for 48 hours at 37° C. in 5% (v/v) humidified CO2.
To each well was added 100 μL of Steady-Glo luciferase assay substrate (Promega) and the plates were placed on a rotary shaker for 1 min. The plates were then incubated at room temperature in the dark for one hour. The contents of each well were then transferred to a white microtiter plate (Packard) and read on a Luminoskan Ascent (Thermo Lab Systems).
L929 AR percent activity was determined by testing dilutions of the test compound using a concentration of 3000 nM unless otherwise noted. L929 percent inhibition was determined by testing dilutions of the test compound using a concentration of 3000 nM. EC50s and IC50s were determined by testing serial dilutions of the test compound (usually duplicate ten half-log dilutions starting at 10 μM). Luciferase activity per well were measured and EC50s and IC50s determined by linear regression.
Representative compounds of the present invention were tested for functional activity at the androgen receptor according to the procedure described above with results as listed in Table 4.

[3] = biological target: T1, androgen receptor; assay: Androgen receptor binding using rat ventral prostate cytosol; design: Male Sprague Dawley or Wistar rats (Charles River, 200-300 g) were used for each preparation; from tissue; host or cells: ventral prostate cytosol of castrated male Sprague Dawley or Wistar rats
[4] = biological target: T1, androgen receptor; assay: COS-7 whole-cell androgen receptor binding assay, adenovirus transduction; design: expressed in transfected cells; conditions: 3 μM (3000 nM); COS-7 cells, [3H]R1881, AdEasy+rAR
Description: COS-7 cells were plated in 96-well plates at 20,000 cells per well, in a solution of DMEM/F12 (GIBCO) containing 10% (v/v) charcoal-treated fetal bovine serum (Hyclone) and lacking phenol red. The cells were then incubated overnight at 37° C. in 5% (v/v) humidified CO2.
Test compound solutions were prepared by diluting the test compound in 100% (v/v) DMSO, if necessary. Each dilution yielded a solution which was 625× the final desired test concentration.
Next, 1 mL of DMEM/F12 lacking phenol red was pipetted into each of the wells of a 2-mL 96-well assay block. Then 4 μL of the 625× test compound dilutions were pipetted into each well of the assay block. The wells were carefully mixed by pipette.
In a 15 mL or 50 mL sterile centrifuge tube, a 2.5 nM dilution of tritiated methyl-trienolone in DMEM/F12 lacking phenol red ([^3H]R1881; Perkin-Elmer) was prepared.
In a 15 mL or 50 mL sterile centrifuge tube, a dilution in DMEM/F12 of the adenovirus AdEasy+rAR at a moi of 1:50 per well was prepared.
The medium was removed from the 96-well plates by inversion and the plates dried very briefly, inverted, on a sterile towel. As soon as possible after medium removal, 40 μL of the diluted test compound was added to each well, in duplicate. To each well was then added 40 μL of the 2.5 nM [^3H]R1881 and 20 μL of the diluted adenovirus. The plates were then incubated for 48 hours at 37° C. in 5% (v/v) humidified CO2.
The medium was removed from the above incubated plates by inversion and dried. Each well was then washed with 0.35 mL of 1×PBS. The PBS was then removed from the plates by inversion and the plates dried.
To each well was then added 50 μL of 0.5% (v/v) Triton X-100 (Sigma) in 1×PBS and the plates placed on a rotary shaker for 5 min. The contents of each well were then transferred to an OptiPlate-96 (Packard) scintillation plate. To each well was then added 0.2 mL of Microscint-20 (Packard) and the wells counted on a TopCount (Packard).
Percent inhibition was determined by testing dilutions of the test compound (usually duplicates of 10 μM) in the binding assay. Counts per well were measured and percents of inhibition determined. Androgen receptor binding IC50s were determined by testing serial dilutions of the test compound (usually duplicate ten half-log dilutions starting at 10 μM) in the binding assay. Counts per well were measured and IC50s determined by linear regression.
Representative compounds of the present invention were tested for binding to the androgen receptor according to the procedure described above with results as listed in Table C. Unless otherwise noted, COS binding % inhibition was determined using a concentration of 3000 nM. For compounds tested more than once, each result is listed separately in Table 3 below.

[5] = antagonist testing with R1881, luciferase

Compound	active / inactive by non weight adjusted prostate weight [1]	% Activition @ 3 μM [2]	% Inhibition @ 3 μM [2, 5]	% Inhibition @ 3 μM [3]	% Inhibition @ 3 μM [4]	inhibition at 3 µM ([2]; antagonist testing with R1881, luciferase, read-out: % Inhibition @ 3 μM)	inhibition at 3 µM [3]
CC1(C(=O)O)CN(c2ccc(C#N)c(C(F)(F)F)c2)C(=O)N1 (racemic) [Compound 5e]	active	0%	30%	−67%	–	–	–
CC1(C(=O)Nc2ccc(Cl)c(C(F)(F)F)c2)CN(c2ccc(F)cc2)C(=O)N1 (racemic) [Compound 6f]	–	3%	85%	66%	35%	–	–
COC(=O)C1(C)CN(c2ccc(F)cc2)C(=O)N1 (stereo not shown) [Compound 4a, 1-(4-Fluoro-phenyl)-4-methyl-2-oxo-imidazolidine-4-carboxylic acid methyl ester]	inactive	0%	–	–	–	-20%	-57%
CC1(C(=O)Nc2ccc(C#N)c(C(F)(F)F)c2)CN(Cc2ccc(F)cc2)C(=O)N1 (racemic) [Compound 6i]	–	0%	76%	4%	28%	–	–
